Test results from the NIST ThermoML archive (doi:10.1021/je8003832).
± gives the expanded uncertainty stated by the source.

Test: xn = mol fraction of the nth substance listed
Conditions: 101 kPa, Liquid

CCCCn1cc[n+](C)c1.O=S(=O)([O-])C(F)(F)F [1-butyl-3-methylimidazolium trifluoromethanesulfonate] + O
Conditions | mass density [kg/m3] | viscosity [mPa·s]
303.15 K, x2 = 0 | 1298.4 ± 4 | 63.19 ± 4.1
303.15 K, x2 = 0.1032 | 1294.5 ± 3.9 | 45.7 ± 3
303.15 K, x2 = 0.1939 | 1291.2 ± 3.9 | 35.41 ± 2.3
303.15 K, x2 = 0.2987 | 1286.5 ± 3.8 | 28.97 ± 1.9
303.15 K, x2 = 0.3999 | 1280.8 ± 3.7 | 23.25 ± 1.6
303.15 K, x2 = 0.501 | 1272.8 ± 3.6 | 19.19 ± 1.3
303.15 K, x2 = 0.5923 | 1263 ± 3.6 | 15.47 ± 1.1
303.15 K, x2 = 0.7023 | 1246.2 ± 3.5 | 11.56 ± 0.84
303.15 K, x2 = 0.799 | 1220.1 ± 3.4 | 8.206 ± 0.63
303.15 K, x2 = 0.901 | 1164.6 ± 3.3 | 4.552 ± 0.4
308.15 K, x2 = 0 | 1294.9 ± 4.1 | 51.73 ± 0.56
308.15 K, x2 = 0.1032 | 1291 ± 4 | 37.23 ± 2.4
308.15 K, x2 = 0.1939 | 1287.7 ± 4 | 29.27 ± 1.9
308.15 K, x2 = 0.2987 | 1283 ± 3.9 | 24.28 ± 1.6
308.15 K, x2 = 0.3999 | 1277.3 ± 3.8 | 19.95 ± 1.4
308.15 K, x2 = 0.501 | 1269.3 ± 3.7 | 16.8 ± 1.2
308.15 K, x2 = 0.5923 | 1259.5 ± 3.7 | 13.2 ± 0.94
308.15 K, x2 = 0.7023 | 1242.5 ± 3.6 | 10.13 ± 0.75
308.15 K, x2 = 0.799 | 1216.6 ± 3.5 | 6.932 ± 0.55
308.15 K, x2 = 0.901 | 1160.6 ± 3.3 | 3.869 ± 0.34
313.15 K, x2 = 0 | 1291.4 ± 4.2 | 42.46 ± 2.8
313.15 K, x2 = 0.1032 | 1287.5 ± 4.2 | 30.93 ± 2
313.15 K, x2 = 0.1939 | 1284.1 ± 4.1 | 24.46 ± 1.6
313.15 K, x2 = 0.2987 | 1279.4 ± 4 | 20.53 ± 1.4
313.15 K, x2 = 0.3999 | 1273.8 ± 3.9 | 16.88 ± 1.2
313.15 K, x2 = 0.501 | 1265.7 ± 3.9 | 13.95 ± 0.99
313.15 K, x2 = 0.5923 | 1255.9 ± 3.8 | 11.21 ± 0.82
313.15 K, x2 = 0.7023 | 1238.8 ± 3.7 | 8.605 ± 0.66
313.15 K, x2 = 0.799 | 1212.9 ± 3.6 | 5.989 ± 0.5
313.15 K, x2 = 0.901 | 1156.7 ± 3.4 | 3.376 ± 0.3
318.15 K, x2 = 0 | 1287.8 ± 4.3 | 35.17 ± 2.3
318.15 K, x2 = 0.1032 | 1283.8 ± 4.3 | 25.04 ± 1.7
318.15 K, x2 = 0.1939 | 1280.4 ± 4.2 | 20.79 ± 1.4
318.15 K, x2 = 0.2987 | 1275.8 ± 4.1 | 17.55 ± 1.2
318.15 K, x2 = 0.3999 | 1270.2 ± 4 | 14.38 ± 1
318.15 K, x2 = 0.501 | 1262 ± 4 | 12 ± 0.87
318.15 K, x2 = 0.5923 | 1252.2 ± 3.9 | 9.907 ± 0.74
318.15 K, x2 = 0.7023 | 1234.9 ± 3.8 | 7.465 ± 0.59
318.15 K, x2 = 0.799 | 1208.9 ± 3.7 | 5.339 ± 0.45
318.15 K, x2 = 0.901 | 1153 ± 3.5 | 3.156 ± 0.28
323.15 K, x2 = 0 | 1284.4 ± 4.5 | 29.55 ± 2
323.15 K, x2 = 0.1032 | 1280.3 ± 4.4 | 21.51 ± 1.5
323.15 K, x2 = 0.1939 | 1276.8 ± 4.3 | 18.11 ± 1.2
323.15 K, x2 = 0.2987 | 1272.2 ± 4.2 | 15.17 ± 1.1
323.15 K, x2 = 0.3999 | 1266.5 ± 4.1 | 12.62 ± 0.91
323.15 K, x2 = 0.501 | 1258.3 ± 4.1 | 10.42 ± 0.77
323.15 K, x2 = 0.5923 | 1248.5 ± 4 | 8.516 ± 0.65
323.15 K, x2 = 0.7023 | 1231.1 ± 3.9 | 6.576 ± 0.53
323.15 K, x2 = 0.799 | 1205.2 ± 3.8 | 4.57 ± 0.4
323.15 K, x2 = 0.901 | 1150 ± 3.6 | 3.005 ± 0.27
333.15 K, x2 = 0 | 1277.4 ± 4.7 | 21.61 ± 1.5
333.15 K, x2 = 0.1032 | 1273.1 ± 4.6 | 16.07 ± 1.1
333.15 K, x2 = 0.1939 | 1269.7 ± 4.5 | 13.51 ± 0.96
333.15 K, x2 = 0.2987 | 1265 ± 4.4 | 11.61 ± 0.85
333.15 K, x2 = 0.3999 | 1259.3 ± 4.4 | 9.88 ± 0.74
333.15 K, x2 = 0.501 | 1251.1 ± 4.3 | 8.101 ± 0.63
333.15 K, x2 = 0.5923 | 1241.3 ± 4.2 | 6.702 ± 0.54
333.15 K, x2 = 0.7023 | 1223.4 ± 4.1 | 5.137 ± 0.44
333.15 K, x2 = 0.799 | 1197.2 ± 4 | 3.618 ± 0.32
333.15 K, x2 = 0.901 | 1142.6 ± 3.8 | 2.099 ± 0.19
343.15 K, x2 = 0 | 1270.5 ± 4.9 | 16.38 ± 1.1
343.15 K, x2 = 0.1032 | 1266 ± 4.8 | 12.44 ± 0.9
343.15 K, x2 = 0.1939 | 1262.6 ± 4.7 | 10.54 ± 0.78
343.15 K, x2 = 0.2987 | 1257.9 ± 4.6 | 9.137 ± 0.69
343.15 K, x2 = 0.3999 | 1252.2 ± 4.6 | 7.816 ± 0.61
343.15 K, x2 = 0.501 | 1244 ± 4.5 | 6.612 ± 0.53
343.15 K, x2 = 0.5923 | 1233.9 ± 4.4 | 5.384 ± 0.46
343.15 K, x2 = 0.7023 | 1215.6 ± 4.3 | 4.24 ± 0.37
343.15 K, x2 = 0.799 | 1189.3 ± 4.2 | 2.936 ± 0.26
343.15 K, x2 = 0.901 | 1134.3 ± 4.1 | 1.714 ± 0.16
